Measurements taken from US9044421B2, “Treating MUC1-expressing cancers with combination therapies” (GENUS ONCOLOGY, LLC., priority 2012, dated 2015).
Where a SMILES comes first, the peptide text is derived from it. [ ]: non-standard residue; d: D form.

What was measured:
PI3-kinase = conditions: different cell types (Folks et al., 2008); cited from earlier work
p-AKT = assay: Immunoblotting of total cell lysates with anti-phospho-AKT; assay type: cell-based; conditions: ZR-75-1 cells, combined with LY294002 (FIG. 8)
Experimental: FIG. 8. ZR-75-1 breast carcinoma cells were treated with GO-203-2C and LY294002 either alone or in combination. Total cell lysates were prepared and analyzed by immunoblotting with anti-phospho-AKT (top panel) or anti-AKT (bottom panel).

[1] = test system: H-1650 non small cell lung carcinoma cells; assay: AlamarBlue cell viability assay, H-1650 cells; assay type: cell-based
Experimental: FIG. 1. H-1650 non small cell lung carcinoma cells in a 96-well plate were treated with various concentrations of purified GO-203-2C for four days. AlamarBlue dye was added to the cells on day 5, and the absorbance was measured at 570 and 600 nm. A 4-parameter curve was obtained by plotting the percentage reduction of alamarBlue calculated using these absorbance values against the concentration of GO-203-2C used.
alamarBlue assay involves the usage of a fluorometric/colorimetric growth indicator, alamarBlue based on the metabolic activity of cells. As cells grow, the innate metabolic activity results in a chemical reduction of alamarBlue. Continued growth maintains a reduced environment while inhibition of growth maintains an oxidized environment. Live cells cause the change of alamarBlue from oxidized (non-fluorescent, blue) form to reduced (fluorescent, red) form. Data can be collected using either fluorescence-based or absorbance-based instrumentation. Fluorescence is monitored at 530-560 nm excitation wavelength and at 590 nm emission wavelength. Absorbance is monitored at 570 am and 600 nm.
This assay was developed with a 96-well plate using ZR-75-1 or MCF-7 (breast carcinoma cell lines) or H1650 non-small cell lung carcinoma cells at different cell concentrations and the optimal cell number was calculated to be 5,000 cells/well in […] volume. The cell number/well has to be optimized for each cell type to be tested. ZR-75-1 or MCF-7 cells were treated with various concentrations of GO-203-2c, LY294002 or GDC-0941 with 2-fold serial dilutions to obtain a total of 8 different concentrations. Cells in triplicate wells were treated with each concentration of GO-203-2c every day, for 4 days. […] At the end of each hour, absorbance of the plate was measured at 570 nm and 600 nm as reference. A set of blank wells was maintained with medium alone and medium with alamarBlue for the purpose of calculating actual absorbance. Obtained absorbance values were plotted against respective concentrations of GO-2-3-2c. […]

p-S6K = assay: Immunoblotting of total cell lysates with anti-phospho-S6K; assay type: cell-based; conditions: ZR-75-1 cells, combined with GDC-0941 (FIG. 9)
Experimental: FIG. 9. ZR-75-1 breast carcinoma cells were treated with GO-203-2C and GDC-0941 either alone or in combination. Total cell lysates were prepared and analyzed by immunoblotting with anti-phospho-S6K (top panel) or anti-S6K (bottom panel).

Row | SMILES | IC50 (PI3-kinase) [µM] | effect on p-AKT (p-AKT) | live cells ([1]; at 10 mM) [%] | percent reduction of alamarBlue ([1]; highest concentration tested (10 mM)) [%] | percent reduction of alamarBlue ([1]; lowest concentration tested (0.078 mM), untreated control 55.34%) [%] | effect on p-S6K (p-S6K)
1 | CS(=O)(=O)N1CCN(Cc2cc3nc(-c4cccc5[nH]ncc45)nc(N4CCOCC4)c3s2)CC1 [GDC-0941] | 0.5 to 2 |  |  |  |  | 
2 | CC(=O)N[C@H](CCCNC(=N)N)C(=O)N[C@H](CCCNC(=N)N)C(=O)N[C@H](CCCNC(=N)N)C(=O)N[C@H](CCCNC(=N)N)C(=O)N[C@H](CCCNC(=N)N)C(=O)N[C@H](CCCNC(=N)N)C(=O)N[C@H](CCCNC(=N)N)C(=O)N[C@H](CCCNC(=N)N)C(=O)N[C@H](CCCNC(=N)N)C(=O)N[C@H](CS)C(=O)N[C@H](CCC(N)=O)C(=O)N[C@H](CS)C(=O)N[C@H](CCCNC(=N)N)C(=O)N[C@H](CCCNC(=N)N)C(=O)N[C@H](CCCCN)C(=O)N[C@H](CC(N)=O)C(N)=O [GO-203-2C] (Ac-[dR][dR][dR][dR][dR][dR][dR][dR][dR][dC][dQ][dC][dR][dR][dK][dN]-NH2) |  | contributing to the downregulation | 12.3 | 6.86 | 55.65 | contributing to the downregulation
